# Assay results as given in patent US20090291964A1, “Potentiators of Antibacterial Activity” (priority 2003, published 2009).
# Like-named read-outs stand apart in the source and are kept apart here.
# Tests used:
# Type in all cases: cell-based
# S. aureus ATCC 29213 [1] = assay: Minimal effective concentration (MEC) of EPI for gatifloxacin; conditions: lowest amount of EPI which produces the maximum effect on the MIC of gatifloxacin
# Protocol: (§1) The MEC was determined as the minimal concentration of EPI that produced the maximal reduction in substrate MIC.
# (§2) Since any given compound may be recognized by an unknown number of efflux pumps in a particular organism, we reasoned that the MEC of A-106 and C-9 should vary for different antibiotics. Also, the MEC of A-106 and C-9 should vary with the degree of efflux expression in a given strain. […] This was confirmed with two other wild type strains, SA-8325-4 and SA-1199 (Table 3).
# S. aureus ATCC 29213 [2] = assay: MIC by NCCLS microdilution, antibacterial agents with and without EPI; conditions: for MIC: Staphylococcus aureus, ATCC29213, S. aureus ATCC 29213; for Fold-reduction in MIC: gatifloxacin
# Protocol: 3% sterile laked horse blood (Quad Five, Ryegate, Mont.) was added to assays for E. faecalis and S. Pneumoniae. A final concentration of 1% DMSO was present in all assays. […]
# A-106 and C-9 were tested at their respective MECs in combination with a variety of different classes of antibiotics against S. aureus ATCC 29213 (Table 2).
# S. aureus SA-1199B = assay: Minimal effective concentration (MEC) of EPI for gatifloxacin; conditions: for MEC: S. aureus SA-1199B (NorA overproducer), lowest amount of EPI which produces the maximum effect on the MIC of gatifloxacin
# Protocol: as §1, §2
# The MEC of A-106 and C-9 for gatifloxacin was determined in these efflux mutants. […] A similar result was obtained with efflux mutant K2068, where the MEC for A-106 was 6.25 μg/ml and the MEC for C-9 was 3.1 μg/ml. […] This may reflect that either gatifloxacin is recognized by fewer pumps than EtBr or it is a poorer efflux substrate in general. This is consistent with the finding that the activity of A-106 was non-saturable for EtBr but is saturable for gatifloxacin.
# [3] = system: S. aureus SA-1199B (NorA overproducing); assay: MIC of fluoroquinolones with and without EPI; conditions: for Fold-reduction in MIC: gatifloxacin, S. aureus SA-1199B (NorA overproducer)
# Excerpt: A variety of strains may be used in these experiments, including, but not limited to, S. aureus ATCC 29213, E. faecalis ATCC 29212, and S. pneumoniae, S. aureus strains SA-1199, SA-1199B, SA-8325-4, and SA-K2068. S. aureus ATCC 29213, E. faecalis ATCC 29212, and S. pneumoniae ATCC 10015 were obtained from the American Type Culture Collection (Manassas, Va.). S. aureus strains SA-1199 (clinical isolate, susceptible), SA-1199B (SA-1199, NorA overproducing, also has A116E GrlA mutation), SA-8325-4 (NCTC 8325 cured of prophages), SA-K2068 (SA-8325-4, non-NorA multidrug efflux pump overproducing mutation) were obtained from Glenn Kaatz (Kaatz et al., “Identification and characterization of a novel efflux-related multidrug resistance phenotype in Staphylococcus aureus”, J. Antimicrob. Chemother. 50:833-838 (2002); 1993; Kaatz et al., “Phenothiazines and thioxanthenes inhibit multidrug efflux pump activity in Staphylococcus aureus”, Antimicrob. Agents Chemother. 47:719-726, Kaatz et al., “Efflux-mediated fluoroquinolone resistance in Staphylococcus aureus. Antimicrob. Agents Chemother.”, 37:1086-1094, 1993)).
# 3% sterile laked horse blood (Quad Five, Ryegate, Mont.) was added to assays for E. faecalis and S. Pneumoniae. A final concentration of 1% DMSO was present in all assays.
# Recent more hydrophobic fluoroquinolones such as gatifloxacin and moxifloxacin are less well recognized by NorA; however, recently one other pump in S. aureus has been described which also recognizes hydrophobic fluoroquinolones (Kaatz et al. 2002, supra). To investigate the potential of A-106 and C-9 to block the efflux of several fluoroquinolones in cells with constituitively over-expressed efflux pumps, we used S. aureus strains SA-1199B and K2068 (Table 3). […] Kaatz et al., “Phenothiazines and thioxanthenes inhibit multidrug efflux pump activity in Staphylococcus aureus”, Antimicrob. Agents Chemother. 47:719-726 (2003).
# [4] = system: S. aureus clinical isolates; assay: MIC90 studies: fluoroquinolone susceptibility of clinical isolate panel with EPI; conditions: EPI at 50 μg/ml
# Protocol: Susceptibility studies with large panels of resistant clinical isolates were performed at Focus Technologies, Herndon, Va. according to NCCLS protocols (National Committee for Clinical Laboratory Standards, supra).
# To be useful in combination therapy, an EPI needs to substantially reduce the MIC of an antibiotic to within the range of clinical susceptibility. Because many different resistance mechanisms are often present in clinical isolates, including the likelihood of multiple target-based mutations in addition to efflux mutations, the barrier to antibiotic efficacy is much greater. […] Oxacillin and vancomycin MICs were also determined to identify which isolates were methicillin-resistant (S. aureus) and vancomycin-resistant (E. faecalis).
# [5] = S. aureus ATCC 29213, EPI at 4X the MEC for EtBr, VX-710 at 100 μg/ml
# [6] = S. aureus ATCC 29213, EPIs used at the MEC, except VX-710 at 100 μg/ml
# [7] = S. aureus SA-1199B (NorA overproducer) (Table 4)
# [8] = S. aureus SA-1199B, EPI at 4X the MEC for EtBr, VX-710 at 100 μg/ml
# [9] = SA-1199B, EPIs at 4 times MEC for EtBr, A-106 at 100 μg/ml
compound,measurement,setting,value
"COC(=O)[C@H]1[C@H]2C[C@@H]3c4[nH]c5cc(OC)ccc5c4CCN3C[C@H]2C[C@@H](OC(=O)c2cc(OC)c(OC)c(OC)c2)[C@@H]1OC [reserpine, reference compound]",MEC,S. aureus ATCC 29213 [1],>100 µg/mL
same,MIC of gatifloxacin with EPI,S. aureus ATCC 29213 [2]; S. aureus ATCC 29213 (Table 4),0.125 µg/mL
same,MIC of ciprofloxacin with EPI,S. aureus ATCC 29213 [2]; [5],0.063 µg/mL
same,MIC of gatifloxacin with EPI,S. aureus ATCC 29213 [2]; [5],0.063 µg/mL
same,MIC of gentamicin with EPI,S. aureus ATCC 29213 [2]; [5],0.125 µg/mL
same,MIC of levofloxacin with EPI,S. aureus ATCC 29213 [2]; [5],0.125 µg/mL
same,MIC of norfloxacin with EPI,S. aureus ATCC 29213 [2]; [5],0.25 µg/mL
same,Fold-reduction in EtBr MIC,S. aureus ATCC 29213 [2]; [6],4
same,MIC,"S. aureus ATCC 29213 [2]; EPI alone, read-out: MIC of EPI",> 100 µg/mL
same,MIC,"S. aureus ATCC 29213 [2]; EPI at 4X the MEC for EtBr, VX-710 at 100 μg/ml, read-out: MIC of EtBr with EPI",0.4 µg/mL
same,MIC,"S. aureus ATCC 29213 [2]; EPIs used at the MEC, except VX-710 at 100 μg/ml, read-out: MIC of EtBr with EPI",1.6 µg/mL
same,Fold-reduction in MIC,S. aureus ATCC 29213 [2]; S. aureus ATCC 29213,1
same,MEC,S. aureus SA-1199B,25 µg/mL
same,MIC of gatifloxacin with EPI,[3]; [7],0.25 µg/mL
same,MIC of ciprofloxacin with EPI,[3]; [8],0.5 µg/mL
same,MIC of gatifloxacin with EPI,[3]; [8],0.125 µg/mL
same,MIC of gentamicin with EPI,[3]; [8],0.125 µg/mL
same,MIC of levofloxacin with EPI,[3]; [8],0.5 µg/mL
same,MIC of norfloxacin with EPI,[3]; [8],4 µg/mL
same,MIC,"[3]; Staphylococcus aureus, read-out: MIC of EtBr with EPI",0.8 µg/mL
same,Fold-reduction in MIC,[3],2
COc1cc(C(=O)C(=O)N2CCCC[C@H]2C(=O)OC(CCCc2cccnc2)CCCc2cccnc2)cc(OC)c1OC [A-106],change of norfloxacin MIC in combination with EPI,"[4]; S. aureus isolates # 3, 6, 9",reductions in MICs
same,change of ciprofloxacin MIC in combination with EPI,[4]; S. aureus isolates # 3 and 5,reductions in MICs
same,isolates with >2-fold decrease in the MIC for ciprofloxacin,"[4]; S. aureus isolates, Table 5A",10/15
same,isolates with >2-fold decrease in the MIC for norfloxacin,"[4]; S. aureus isolates, Table 5A",13/15
same,restoration of clinical susceptibility,[4]; highly fluoroquinolone-resistant strains in the panel,insufficient to restore clinical susceptibility
same,Ciprofloxacin MIC with EPI,[4]; S. aureus clinical isolate 1,0.5 µg/mL
same,Norfloxacin MIC with EPI,[4]; S. aureus clinical isolate 1,2 µg/mL
same,Ciprofloxacin MIC with EPI,[4]; S. aureus clinical isolate 2,0.12 µg/mL
same,Norfloxacin MIC with EPI,[4]; S. aureus clinical isolate 2,≦0.25 μg/ml
same,Ciprofloxacin MIC with EPI,[4]; S. aureus clinical isolate 3,≦0.06 μg/ml
same,Norfloxacin MIC with EPI,[4]; S. aureus clinical isolate 3,≦0.25 μg/ml
same,Ciprofloxacin MIC with EPI,[4]; S. aureus clinical isolate 4,64 µg/mL
same,Norfloxacin MIC with EPI,[4]; S. aureus clinical isolate 4,128 µg/mL
same,Ciprofloxacin MIC with EPI,[4]; S. aureus clinical isolate 5,≦0.06 μg/ml
same,Norfloxacin MIC with EPI,[4]; S. aureus clinical isolate 5,≦0.25 μg/ml
same,Ciprofloxacin MIC with EPI,[4]; S. aureus clinical isolate 6,8 µg/mL
same,Norfloxacin MIC with EPI,[4]; S. aureus clinical isolate 6,8 µg/mL
same,Ciprofloxacin MIC with EPI,[4]; S. aureus clinical isolate 7,≦0.06 μg/ml
same,Norfloxacin MIC with EPI,[4]; S. aureus clinical isolate 7,≦0.25 μg/ml
same,Ciprofloxacin MIC with EPI,[4]; S. aureus clinical isolate 8,0.25 µg/mL
same,Norfloxacin MIC with EPI,[4]; S. aureus clinical isolate 8,1 µg/mL
same,Ciprofloxacin MIC with EPI,[4]; S. aureus clinical isolate 9,≦0.06 μg/ml
same,Norfloxacin MIC with EPI,[4]; S. aureus clinical isolate 9,≦0.25 μg/ml
same,Ciprofloxacin MIC with EPI,[4]; S. aureus clinical isolate 10,8 µg/mL
same,Norfloxacin MIC with EPI,[4]; S. aureus clinical isolate 10,16 µg/mL
same,Ciprofloxacin MIC with EPI,[4]; S. aureus clinical isolate 11,8 µg/mL
same,Norfloxacin MIC with EPI,[4]; S. aureus clinical isolate 11,32 µg/mL
same,Ciprofloxacin MIC with EPI,[4]; S. aureus clinical isolate 12,≦0.06 μg/ml
same,Norfloxacin MIC with EPI,[4]; S. aureus clinical isolate 12,≦0.25 μg/ml
same,Ciprofloxacin MIC with EPI,[4]; S. aureus clinical isolate 13,32 µg/mL
same,Norfloxacin MIC with EPI,[4]; S. aureus clinical isolate 13,64 µg/mL
same,Ciprofloxacin MIC with EPI,[4]; S. aureus clinical isolate 14,32 µg/mL
same,Norfloxacin MIC with EPI,[4]; S. aureus clinical isolate 14,64 µg/mL
same,Ciprofloxacin MIC with EPI,[4]; S. aureus clinical isolate 15,32 µg/mL
same,Norfloxacin MIC with EPI,[4]; S. aureus clinical isolate 15,64 µg/mL
same,MEC,S. aureus ATCC 29213 [1],>100 µg/mL
same,MIC of gatifloxacin with EPI,S. aureus ATCC 29213 [2]; S. aureus ATCC 29213 (Table 4),0.125 µg/mL
same,"effect on the MICs of gatifloxacin, erythromycin, azithromycin, chloramphenicol, ceftriaxone, and linezolid","S. aureus ATCC 29213 [2]; S. aureus ATCC 29213, Table 2",No effect
same,MIC of EPI,"S. aureus ATCC 29213 [2]; S. aureus ATCC 29213, EPI alone",>100 µg/mL
same,MIC of EtBr with EPI,S. aureus ATCC 29213 [2]; [5],0.2 µg/mL
same,MIC of ciprofloxacin with EPI,S. aureus ATCC 29213 [2]; [5],0.063 µg/mL
same,MIC of gatifloxacin with EPI,S. aureus ATCC 29213 [2]; [5],0.063 µg/mL
same,MIC of gentamicin with EPI,S. aureus ATCC 29213 [2]; [5],0.125 µg/mL
same,MIC of levofloxacin with EPI,S. aureus ATCC 29213 [2]; [5],0.125 µg/mL
same,MIC of norfloxacin with EPI,S. aureus ATCC 29213 [2]; [5],0.125 µg/mL
same,Fold-reduction in EtBr MIC,S. aureus ATCC 29213 [2]; [6],31
same,MIC of EtBr with EPI,S. aureus ATCC 29213 [2]; [6],0.2 µg/mL
same,reduction of the MIC of EtBr,"S. aureus ATCC 29213 [2]; S. aureus wild type, EPI up to 100 μg/ml, data not shown",30 fold
same,Fold-reduction in MIC,S. aureus ATCC 29213 [2]; S. aureus ATCC 29213,1
same,effect of EPI on the MIC of gatifloxacin,S. aureus ATCC 29213 [2]; wild type strain ATCC 29213,unaffected
same,MEC,S. aureus SA-1199B,12.5 µg/mL
same,MEC for gatifloxacin,"S. aureus SA-1199B; efflux mutant, strain not named in the sentence (SA-1199B by context)",12.5 µg/mL
same,MIC of gatifloxacin with EPI,[3]; [7],0.25 µg/mL
same,MIC of EtBr with EPI,[3]; [8],0.4 µg/mL
same,MIC of ciprofloxacin with EPI,[3]; [8],0.5 µg/mL
same,MIC of levofloxacin with EPI,[3]; [8],0.5 µg/mL
same,MIC of norfloxacin with EPI,[3]; [8],2 µg/mL
same,reduction of MIC of ciprofloxacin,[3]; [9],2 fold
same,reduction of MIC of gatifloxacin,[3]; [9],2 fold
same,reduction of MIC of levofloxacin,[3]; [9],1 fold
same,reduction of MIC of norfloxacin,[3]; [9],8 fold
same,Fold-reduction in MIC,[3],2
